The target in data set [1] is MMP-3CD (catalytic domain of stromelysin-1) (Homo sapiens, UniProt P08254). Nature of the data set: Thiopeptolide substrate hydrolysis inhibition assay, MMP-3CD. The data set is classed as biochemical. The settings on record: Table II; micromolar concentration; MES buffer pH 6.0. The procedure: (§1) Thiopeptolide substrates show virtually no decomposition or hydrolysis at or below neutral pH in the absence of a matrix metalloproteinase enzyme.
It should be appreciated that the assay buffer used with MMP-3CD is 50 mM N-morpholinoethanesulfonate (“MES”) at pH 6.0 rather than the HEPES buffer at pH 7.0 described above.

The target in data set [2] is MMP-13CD (catalytic domain of collagenase-3) (Homo sapiens, UniProt P45452). In words: Thiopeptolide substrate hydrolysis inhibition assay, MMP-13CD. The data set is classed as biochemical.
Text: as §1

In data set [3] the target is T1, MMP-1FL (full-length interstitial collagenase) (Homo sapiens, UniProt P03956).
T1 sequence (P03956 100-469): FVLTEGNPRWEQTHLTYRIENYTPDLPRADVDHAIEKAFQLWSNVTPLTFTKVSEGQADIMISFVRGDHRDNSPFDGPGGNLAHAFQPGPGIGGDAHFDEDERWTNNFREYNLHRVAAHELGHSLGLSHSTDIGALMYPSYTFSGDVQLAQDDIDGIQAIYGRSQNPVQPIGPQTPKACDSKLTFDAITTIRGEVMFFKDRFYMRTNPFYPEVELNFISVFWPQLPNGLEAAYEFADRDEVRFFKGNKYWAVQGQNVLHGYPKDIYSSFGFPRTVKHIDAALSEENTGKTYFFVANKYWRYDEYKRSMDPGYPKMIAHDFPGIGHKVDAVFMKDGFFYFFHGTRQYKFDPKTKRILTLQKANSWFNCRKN
In words: Thiopeptolide substrate hydrolysis inhibition assay, MMP-1FL. The data set is classed as biochemical. The settings on record: Table II; micromolar concentration; HEPES pH 7.0.
Text: as §1

Data set [4] deals with T2, MMP-7FL (full-length matrilysin) (Homo sapiens, UniProt P09237).
T2 sequence (P09237 95-267): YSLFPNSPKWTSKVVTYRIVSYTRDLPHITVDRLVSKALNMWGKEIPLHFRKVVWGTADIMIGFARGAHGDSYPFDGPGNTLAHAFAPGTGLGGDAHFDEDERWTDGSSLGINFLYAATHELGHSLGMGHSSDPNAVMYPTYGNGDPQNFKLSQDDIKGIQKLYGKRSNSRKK
In words: Thiopeptolide substrate hydrolysis inhibition assay, MMP-7FL. The data set is classed as biochemical. The settings on record: Table II; micromolar concentration; HEPES pH 7.0.
Text: as §1

The target in a further data set is T3, MMP-12CD (Homo sapiens, UniProt P39900).
T3 construct: 12CD
In words: Thiopeptolide substrate hydrolysis inhibition assay, MMP-12CD. It counts as biochemical. To be noted: Table II; micromolar concentration; HEPES pH 7.0.
Text: as §1

In data set [5] the target is T4, MMP-2FL (full length Gelatinase A) (Homo sapiens, UniProt P08253).
T4 sequence (P08253 110-660): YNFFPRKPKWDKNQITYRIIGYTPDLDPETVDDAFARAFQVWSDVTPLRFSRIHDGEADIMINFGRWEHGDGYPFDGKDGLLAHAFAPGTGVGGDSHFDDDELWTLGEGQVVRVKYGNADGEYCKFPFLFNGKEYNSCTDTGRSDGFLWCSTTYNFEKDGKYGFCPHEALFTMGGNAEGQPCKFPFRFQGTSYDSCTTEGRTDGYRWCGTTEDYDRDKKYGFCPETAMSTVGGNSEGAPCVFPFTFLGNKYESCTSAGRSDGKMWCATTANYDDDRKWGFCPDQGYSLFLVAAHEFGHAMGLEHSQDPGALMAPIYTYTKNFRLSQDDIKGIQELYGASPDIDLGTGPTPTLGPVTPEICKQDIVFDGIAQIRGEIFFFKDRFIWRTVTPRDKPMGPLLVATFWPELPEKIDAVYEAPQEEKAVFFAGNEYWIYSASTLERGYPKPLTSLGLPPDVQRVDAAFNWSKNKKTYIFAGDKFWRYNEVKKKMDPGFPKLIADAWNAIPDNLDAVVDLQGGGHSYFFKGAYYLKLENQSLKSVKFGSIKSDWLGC
In words: Thiopeptolide substrate hydrolysis inhibition assay, MMP-2FL. To be noted: Table II; micromolar concentration; HEPES pH 7.0. The data set is classed as biochemical.
Text: as §1

Data set [6] has as its target MMP-9FL (full-length Gelatinase B) (Homo sapiens, UniProt P14780). In words: Thiopeptolide substrate hydrolysis inhibition assay, MMP-9FL. To be noted: Table II; micromolar concentration; HEPES pH 7.0. It counts as biochemical.
Text: as §1

In data set [7] the target is MMP-14CD (catalytic domain of MMP-14) (Homo sapiens, UniProt P50281). Nature of the data set: Thiopeptolide substrate hydrolysis inhibition assay, MMP-14CD. The data set is classed as biochemical. The settings on record: Table II; micromolar concentration; HEPES pH 7.0.
Text: as §1

[8] abbreviates: Table I, thiopeptolide substrate, HEPES pH 7.0, 22° C., read-out: MMP-13CD IC50.
[9] abbreviates: Table II, micromolar concentration, HEPES pH 7.0, read-out: IC50 MMP-13CD.

pIC50: −log10 of the molar value. Read-outs that look alike come from different tables or passages of the source.

For orientation: pIC50 means the negative decadic logarithm of the IC50, by convention in mol/L. As a reminder, the melting point is the temperature, or range, at which the solid turns liquid.

Sequence of MMP-3CD (catalytic domain of stromelysin-1) (P08254 100-272 limits assumed): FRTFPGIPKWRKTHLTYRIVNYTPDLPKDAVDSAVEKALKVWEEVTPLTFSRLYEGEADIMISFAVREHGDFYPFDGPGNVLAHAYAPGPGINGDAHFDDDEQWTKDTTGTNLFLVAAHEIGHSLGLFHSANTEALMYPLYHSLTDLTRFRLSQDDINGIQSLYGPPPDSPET
Sequence of MMP-9FL (full-length Gelatinase B) (P14780 94-707, species assumed): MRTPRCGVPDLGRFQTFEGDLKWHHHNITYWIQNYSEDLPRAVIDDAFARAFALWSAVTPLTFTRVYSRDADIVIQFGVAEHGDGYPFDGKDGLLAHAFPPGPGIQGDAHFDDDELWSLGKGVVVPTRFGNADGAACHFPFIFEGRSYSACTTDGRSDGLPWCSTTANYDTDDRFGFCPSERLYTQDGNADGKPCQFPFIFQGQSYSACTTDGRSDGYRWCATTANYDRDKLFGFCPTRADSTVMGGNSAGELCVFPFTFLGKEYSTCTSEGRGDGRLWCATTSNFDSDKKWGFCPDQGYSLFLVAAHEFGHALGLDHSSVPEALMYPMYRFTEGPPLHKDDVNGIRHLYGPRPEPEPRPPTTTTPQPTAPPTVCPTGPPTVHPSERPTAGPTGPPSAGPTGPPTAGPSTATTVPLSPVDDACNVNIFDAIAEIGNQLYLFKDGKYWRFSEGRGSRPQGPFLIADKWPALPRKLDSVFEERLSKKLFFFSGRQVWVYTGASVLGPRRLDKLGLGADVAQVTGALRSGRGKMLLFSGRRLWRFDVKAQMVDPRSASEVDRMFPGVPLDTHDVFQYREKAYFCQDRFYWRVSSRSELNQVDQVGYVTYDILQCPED
T3 sequence (P39900 106-263 limits assumed): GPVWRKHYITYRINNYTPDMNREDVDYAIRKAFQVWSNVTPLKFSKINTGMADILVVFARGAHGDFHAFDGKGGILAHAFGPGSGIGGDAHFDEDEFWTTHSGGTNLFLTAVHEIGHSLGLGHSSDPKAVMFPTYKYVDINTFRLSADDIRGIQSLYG

As to `O=C(OCc1ccccc1)c1cc2c(=O)n(Cc3ccccc3)c(=O)[nH]c2s1` [Example 1, 3-Benzyl-2,4-dioxo-1,2,3,4-tetrahydro-thieno[2,3-d]pyrimidine-6-carboxylic acid benzyl ester], the melting point was 195 to 197 °C. In [1], this compound gave a negative-log IC50 (pIC50) of 4.74. Moreover, the negative logarithm of the IC50 (pIC50) in data set [2] (setting [8]) was 6.13. Moreover, the pIC50 in [2] (setting [9]) was 6.21.
`COc1ccc(CNC(=O)c2cc3c(=O)n(Cc4ccc([N+](=O)[O-])nc4)c(=O)n(C)c3s2)cc1` [Example 369, 1-Methyl-3-(6-nitro-pyridin-3-ylmethyl)-2,4-dioxo-1,2,3,4-tetrahydro-thieno[2,3-d]pyrimidine-6-carboxylic acid 4-methoxy-benzylamide]: the pIC50 in [1] is 5.00; in data set [3], 5.00; in [4], 4.52; against MMP-12CD, 4.52; in data set [2] (setting [8]) it was 5.98; in data set [2] (setting [9]), 5.98. Besides, the pIC50 in data set [5], in [6] and in data set [7] was 4.52 each time.
In the case of `COC(=O)c1ccc(Cn2c(=O)c3cc(C(=O)NCc4ccc(OC)cc4)sc3n(C)c2=O)cc1OC` [Example 228, 2-Methoxy-4-[6-(4-methoxy-benzylcarbamoyl)-1-methyl-2,4-dioxo-1,4-dihydro-2H-thieno[2,3-d]pyrimidin-3-ylmethyl]-benzoic acid methyl ester], the pIC50 in data set [1] is 4.82; in [3], 4.52; in [4], 5.00; on MMP-12CD, 4.52; in [2] (setting [8]) it was 6.36; in data set [2] (setting [9]) it was 6.36. The pIC50 in [5], in data set [6] and in data set [7] was 4.52 each time.
Turning to `Cn1c(=O)n(Cc2ccccc2)c(=O)c2cc(C(=O)OCc3ccncc3)sc21` [Example 303, 3-Benzyl-1-methyl-2,4-dioxo-1,2,3,4-tetrahydro-thieno[2,3-d]pyrimidine-6-carboxylic acid pyridin-4-ylmethyl ester], the negative-log IC50 (pIC50) in data set [1] is 5.22; in [4], 4.49; in data set [2] (setting [8]), 8.44; in data set [2] (setting [9]), 8.44; in data set [6] it was 4.52.
With `COC(=O)c1ccc(Cn2c(=O)c3cc(C(N)=O)sc3n(C)c2=O)cc1C` [Example 249a], the negative logarithm of the IC50 (pIC50) was 4.52 in data set [4]; 6.19 in data set [2] (setting [8]); 6.19 in data set [2] (setting [9]); 4.52 in data set [5]; 4.52 in data set [6]; 4.52 in [7].
For `COc1cccc(CNC(=O)c2cc3c(=O)n(CCS(=O)(=O)c4ccc(Cl)cc4)c(=O)n(C)c3s2)c1` [Example 246, 3-[2-(4-Chloro-benzenesulfonyl)-ethyl]-1-methyl-2,4-dioxo-1,2,3,4-tetrahydro-thieno[2,3-d]pyrimidine-6-carboxylic acid 3-methoxy-benzylamide], the pIC50 in data set [1] was 4.64; in data set [4] it was 4.32; against MMP-12CD it was 4.52; in [2] (setting [8]) it was 5.25; in [2] (setting [9]) it was 5.25; in [5], 4.52. The negative logarithm of the IC50 (pIC50) in data set [6] is 4.52; in data set [7] it was 4.44.
For `COc1ccc(CNC(=O)c2cc3c(=O)n(Cc4cccc(OC)c4)c(=O)n(C)c3s2)cc1` [Example 63, 3-(3-Methoxy-benzyl)-1-methyl-2,4-dioxo-1,2,3,4-tetrahydro-thieno[2,3-d]pyrimidine-6-carboxylic acid 4-methoxy-benzylamide], the pIC50 was 4.74 in data set [1]; 4.52 in data set [3]; 4.52 in data set [4]; 4.52 at MMP-12CD; 6.96 in [2] (setting [8]); 6.96 in data set [2] (setting [9]). The pIC50 in [5], in [6] and in data set [7] was 4.52 each time.
Regarding `CCCCNC(=O)NS(=O)(=O)c1ccc(Cn2c(=O)c3cc(C(=O)NCc4cccc(OC)c4)sc3n(C)c2=O)cc1` [Example 231a], the pIC50 is 4.89 in data set [1]; 4.34 in [4]; 4.52 on MMP-12CD; 8.05 in data set [2] (setting [8]); 8.05 in data set [2] (setting [9]); 4.30 in data set [5]. For the same compound, the negative logarithm of the IC50 (pIC50) in [6] was 4.04; in data set [7], 4.52.
Turning to `O=C(OCc1ccncc1)c1cc2c(=O)n(Cc3ccc(Br)cc3)c(=O)[nH]c2s1` [Example 49, 3-(4-Bromo-benzyl)-2,4-dioxo-1,2,3,4-tetrahydro-thieno[2,3-d]pyrimidine-6-carboxylic acid pyridin-4-ylmethyl ester], the pIC50 in [1] was 4.64; in data set [2] (setting [8]), 6.59; in data set [2] (setting [9]), 6.59.
In turn, `CCn1c(=O)n(Cc2ccccc2)c(=O)c2cc(C(=O)OCc3ccccc3)sc21` [Example 73, 3-Benzyl-1-ethyl-2,4-dioxo-1,2,3,4-tetrahydro-thieno[2,3-d]pyrimidine-6-carboxylic acid benzyl ester] had a melting point of 147 to 148 °C. Besides, the pIC50 in data set [2] (setting [8]) is under 4.00.
The like results for `O=C(OCc1ccc(/C=C/c2ccccc2)cc1)c1cc2c(=O)n(Cc3ccccc3)c(=O)[nH]c2s1` [Example 4] were, in that order, 247 to 249 °C and 4.80.
`O=C(OCc1ccncc1)c1cc2c(=O)n(Cc3ccccc3)c(=O)[nH]c2s1` [Example 2, 3-Benzyl-2,4-dioxo-1,2,3,4-tetrahydro-thieno[2,3-d]pyrimidine-6-carboxylic acid pyridin-4-ylmethyl ester] returned a melting point of 248 to 250 °C. For the same compound, the pIC50 in data set [2] (setting [8]) is 6.51.
As for `COc1ccc(CNC(=O)c2cc3c(=O)n(Cc4ccc(S(N)(=O)=O)cc4)c(=O)n(C)c3s2)cc1` [Example 217, 1-Methyl-2,4-dioxo-3-(4-sulfamoyl-benzyl)-1,2,3,4-tetrahydro-thieno[2,3-d]pyrimidine-6-carboxylic acid 4-methoxy-benzylamide], the negative logarithm of the IC50 (pIC50) is 4.57 in data set [1]; 4.52 against MMP-12CD; 7.11 in [2] (setting [8]); 7.11 in data set [2] (setting [9]); 4.52 in data set [6].
Turning to `COc1cccc(CNC(=O)c2cc3c(=O)n(Cc4ccc(CC(=O)O)cc4)c(=O)n(C)c3s2)c1` [Example 39, {4-[6-(3-Methoxy-benzylcarbamoyl)-1-methyl-2,4-dioxo-1,4-dihydro-2H-thieno[2,3-d]pyrimidin-3-ylmethyl]-phenyl}-acetic acid], the values for the pIC50 (in data set [1]; against MMP-12CD; in [2] (setting [9])) were 4.80, 5.00 and 8.42, respectively.
For `COc1cccc(CNC(=O)c2cc3c(=O)n(CC#N)c(=O)n(C)c3s2)c1` [Example 224, 3-Cyanomethyl-1-methyl-2,4-dioxo-1,2,3,4-tetrahydro-thieno[2,3-d]pyrimidine-6-carboxylic acid 3-methoxy-benzylamide], the melting point fell in the range of 159 to 163 °C. In data set [2] (setting [8]), the negative logarithm of the IC50 (pIC50) is 6.11.

The values above are taken from patent US20030004172A1, “Fused pyrimidinone matrix metalloproteinase inhibitors” (priority 2001, published 2003).
